Structures can show the parent of a compound that is named as a salt.
tested on: HCT116; test: efficacy (fitted maximal change in viability relative to DMSO control); higher = less cytotoxic (negative = loss of viability); conditions: 48 h
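Further: Luminescence-based viability readout, five doses per compound, normalized against on-plate DMSO and empty-well controls, followed by dose-response curve fitting for every drug.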

Row | Compound | efficacy [%]
1 | c1ccc2[nH]c(-c3cscn3)nc2c1 [Thiabendazole] | -7.02
2 | S=P(N1CC1)(N1CC1)N1CC1 [ThioTEPA] | -13.1
3 | Cc1ccsc1C(=CCCN1CCC[C@@H](C(=O)O)C1)c1sccc1C [Tiagabine hydrochloride] | -8.94
4 | Clc1ccccc1CN1CCc2sccc2C1 [Ticlopidine hydrochloride] | -21.1
5 | O=c1sn(-c2cccc3ccccc23)c(=O)n1Cc1ccccc1 [Tideglusib] | -7.08
6 | CN(C)[C@H]\1[C@@H]2C[C@@H]\3CC4=C(C(=C(NC(=O)CNC(C)(C)C)C=C4N(C)C)O)C(=O)C3=C(O)/[C@@]2(O)C(=O)\C(=C1O)C(N)=O [Tigecycline] | -18.8
7 | O=c1oc2cc(O)ccc2s1 [Tioxolone] | -6.66
8 | O=C(O)C(=O)c1cn(Cc2ccccc2)c2ccc(-c3ccc(OC(F)(F)F)cc3)cc12 [Tiplasinin] | -22.4
9 | NC[C@H]1O[C@H](O[C@H]2[C@H](O)[C@@H](O[C@H]3O[C@H](CO)[C@@H](O)[C@H](N)[C@H]3O)[C@H](N)C[C@@H]2N)[C@H](N)C[C@@H]1O [Tobramycin] | -8.81
10 | Cc1ccc(C(=O)c2cc(O)c(O)c([N+](=O)[O-])c2)cc1 [Tolcapone] | -83.1
11 | CC1=CC(=CC=C1)OC/2=C/NC(=O)/N=C2 [Tolimidone] | 6.41
12 | Cc1cccc(N(C)C(=S)Oc2ccc3ccccc3c2)c1 [Tolnaftate] | -28.8
13 | Cc1ccc(O)c(C(CCN(C(C)C)C(C)C)c2ccccc2)c1.Cl (stereo not given) [Tolterodine tartrate] | -19.8
14 | Cc1ccccc1C(=O)Nc1ccc(C(=O)N2CCCC(O)c3cc(Cl)ccc32)c(C)c1 (stereo not given) [Tolvaptan] | -64.3
15 | COc1ccc(/C=C/C(=O)Nc2ccccc2C(=O)O)cc1OC [Tranilast] | -8.29
16 | N[C@@H]1C[C@H]1c1ccccc1 [Tranylcypromine] | -9.58
17 | CC1=C(/C=C/C(C)=C/C=C/C(C)=C/C(=O)O)C(C)(C)CCC1 [Tretinoin] | -22.5
18 | NC(=S)N/N=C/c1ncccc1N [Triapine] | -21.4
19 | N[S+](=O)([O-])c1cc2c(cc1Cl)NC(C(Cl)Cl)N[S+]2(=O)[O-] (stereo not given) [Trichlormethiazide] | 6.79
20 | CC1=CC2=C(O1)C(=C3OC(=O)\C=C(C)/C3=C2)C [Trioxsalen] | -19.8
21 | O=C(CCCCCCC(=O)Nc1ccc([C@H]2O[C@@H](CSc3nc(-c4ccccc4)c(-c4ccccc4)o3)C[C@@H](c3ccc(CO)cc3)O2)cc1)NO [Tubacin] | -23.7
22 | CC(C)OC(=O)/C1=C/N(CC(C)(C)C2=C1[NH]C3=CC=CC=C23)C(=O)C4=CC=C(F)C(=C4)F [Turofexorate isopropyl] | -17.9
23 | N#C/C(=C\c1ccc(O)c(O)c1)C(=O)NCc1ccccc1 [Tyrphostin B42] | -71.9
24 | COc1cc2c(NC3CCN(C)CC3)nc(N3CCCN(C)CC3)nc2cc1OCCCN(C)C [UNC-0224] | -57.9
25 | O=C(c1ccc(C(=O)N2CCC(N3CCCC3)CC2)c(Nc2ccccc2)c1)N1CCC(N2CCCC2)CC1 [UNC-1215] | -10.4

Row | Compound | efficacy [%]
26 | CCCC\1=C(/CNC(=O)C2=CC(=CC3=C2C=N[N]3C(C)C)C4=CC=C(N=C4)N5CCN(CC5)C(C)C)C(=O)NC(=C1)\C [UNC-1999] | -25.5
27 | CCN(CC)CCCC[C@H](NC(=O)[C@H](CC(C)C)NC(=O)[C@H](C)NC(=O)[C@H](Cc1ccccc1)NC(=O)c1ccc(C(C)(C)C)cc1)C(=O)N[C@@H](CO)C(=O)OC [UNC-3866] | -18.9
28 | OC[C@H]1O[C@H]([C@H](O)[C@@H]1O)N2\C=C/C(=O)NC2=O [Uridine] | -9.88
29 | C[C@@H]1CC[C@@]2(CC[C@]3(C)\C(=C/C[C@@H]4[C@@]5(C)CC[C@H](O)C(C)(C)[C@@H]5CC[C@@]34C)[C@@H]2[C@H]1C)C(O)=O [Ursolic acid] | 6.32
30 | CC[C@H](NC(=O)[C@H](C[S+](=O)([O-])CC1CC1)N[C@@H](c1ccc(F)cc1)C(F)(F)F)C(=O)C(=O)NC1CC1 [VBY-825] | -25.3
31 | C[S+](=O)([O-])c1ccc(-c2cnc(N)c(C(=O)Nc3ccccc3)n2)cc1 [VE-821] | -26.1
32 | CC(C)(C)C#Cc1cc(N(C(=O)[C@H]2CC[C@H](C)CC2)[C@H]2CC[C@@H](O)CC2)c(C(=O)O)s1 [VX-222] | -59.3
33 | FC1=CC=C(SC/2=N/N3\C=N/C(=O)/C(=C3/C=C2)C4=C(Cl)C=CC=C4Cl)C(=C1)F [VX-745] | -34.7
34 | CCO[C@@H]1OC(=O)C[C@@H]1NC(=O)[C@@H]1CCCN1C(=O)[C@@H](NC(=O)c1ccc(N)c(Cl)c1)C(C)(C)C [VX-765] | 23.5
35 | O=C(O)CNC(=O)c1ncc(-c2cccc(Cl)c2)cc1O [Vadadustat] | -15.6
36 | CC(C)[C@H](N)C(=O)OCCOC[N]1C=NC2=C1\N=C(N)/NC2=O [Valaciclovir] | 8.42
37 | Cc1onc(-c2ccccc2)c1-c1ccc([S+](N)(=O)[O-])cc1 [Valdecoxib] | -36.8
38 | CCCC(CCC)C(=O)[O-] [Valproic acid sodium salt] | 14
39 | CN[C@H](CC(C)C)C(=O)N[C@H]1C(=O)N[C@@H](CC(N)=O)C(=O)N[C@H]2C(=O)N[C@H]3C(=O)N[C@H](C(=O)N[C@H](C(=O)O)c4cc(O)cc(O)c4-c4cc3ccc4O)[C@H](O)c3ccc(c(Cl)c3)Oc3cc2cc(c3O[C@@H]2O[C@H](CO)[C@@H](O)[C@H](O)[C@H]2O[C@H]2C[C@](C)(N)[C@H](O)[C@H](C)O2)Oc2ccc(cc2Cl)[C@H]1O [Vancomycin hydrochloride] | -27
40 | O=C(O)CC/C=C\CC[C@@H]1[C@@H](N2CCCCC2)[C@@H](O)C[C@@H]1OCc1ccc(-c2ccccc2)cc1 [Vapiprost hydrochloride] | -23.2
41 | CCCC1=NC(=C2[N]1NC(=N\C2=O)/C3=CC(=CC=C3OCC)[S+]([O-])(=O)N4CCN(CC)CC4)C [Vardenafil] | -19.1
42 | CCc1c(C(=O)C(N)=O)c2c(OCC(=O)O)cccc2n1Cc1ccccc1 [Varespladib] | -27.8
43 | Clc1ccc(Nc2nnc(Cc3ccncc3)c3ccccc23)cc1 [Vatalanib] | -27.3
44 | CC(=O)O[C@H]1C[C@@H]2CC[C@@H]3[C@H](CC[C@@]4(C)[C@H]3C[C@H]([N+]3(C)CCCCC3)[C@@H]4OC(C)=O)[C@@]2(C)C[C@@H]1N1CCCCC1.[Br-] [Vecuronium bromide] | -10.9
45 | O=C(O)[C@@H](c1ccc(OCc2ccc3ccccc3n2)cc1)C1CCCC1 [Veliflapon] | -10.1
46 | C[C@]1(c2nc3c(C(N)=O)cccc3[nH]2)CCCN1 [Veliparib] | -31.3
47 | CCC[S+](=O)([O-])Nc1ccc(F)c(C(=O)c2c[nH]c3ncc(-c4ccc(Cl)cc4)cc23)c1F [Vemurafenib] | 9.66
48 | CC1(C)CCC(=C(\C1)C2=CC=C(Cl)C=C2)/CN3CCN(CC3)C4=CC(=C(C=C4)C(=O)N[S+]([O-])(=O)C5=CC=C(NCC6CCOCC6)C(=C5)[N+]([O-])=O)OC7=CN=C8[NH]C=CC8=C7 [Venetoclax (ABT-199)] | -73.3
49 | CCCCOc1nc(N)c2c(n1)N(Cc1cccc(CN3CCCC3)c1)CC(=O)N2 [Vesatolimod] | -47.6
50 | COc1ccc(C(=O)N2CCN(c3ccc4c(c3)CCC(=O)N4)CC2)cc1OC [Vesnarinone] | -21.4

Source: the supplement of paper PMC10290057
